Values belong to the compound of their own block, whether it stands above or below them.
Experiments:
[1] = Drug uptake in CD-1 mouse brain at 10 mg/kg, po via gavage measured after 5 mins by LC-MS/MS analysis; format: ADME, organism-based; details: read-out: Ct
[2] = Drug uptake in CD-1 mouse plasma at 10 mg/kg, po via gavage measured after 5 mins by LC-MS/MS analysis; format: ADME, organism-based
[3] = Drug concentration in […] mouse brain at 3 mg/kg, po measured after 30 mins; format: ADME, organism-based; details: read-out: Ct
[4] = biological target: T1, Amyloid-beta precursor protein (Homo sapiens, UniProt P05067); assay: Inhibition of human AChE-induced amyloid beta (1 to 40) aggregation (unknown origin)
T1 sequence (P05067 whole entry): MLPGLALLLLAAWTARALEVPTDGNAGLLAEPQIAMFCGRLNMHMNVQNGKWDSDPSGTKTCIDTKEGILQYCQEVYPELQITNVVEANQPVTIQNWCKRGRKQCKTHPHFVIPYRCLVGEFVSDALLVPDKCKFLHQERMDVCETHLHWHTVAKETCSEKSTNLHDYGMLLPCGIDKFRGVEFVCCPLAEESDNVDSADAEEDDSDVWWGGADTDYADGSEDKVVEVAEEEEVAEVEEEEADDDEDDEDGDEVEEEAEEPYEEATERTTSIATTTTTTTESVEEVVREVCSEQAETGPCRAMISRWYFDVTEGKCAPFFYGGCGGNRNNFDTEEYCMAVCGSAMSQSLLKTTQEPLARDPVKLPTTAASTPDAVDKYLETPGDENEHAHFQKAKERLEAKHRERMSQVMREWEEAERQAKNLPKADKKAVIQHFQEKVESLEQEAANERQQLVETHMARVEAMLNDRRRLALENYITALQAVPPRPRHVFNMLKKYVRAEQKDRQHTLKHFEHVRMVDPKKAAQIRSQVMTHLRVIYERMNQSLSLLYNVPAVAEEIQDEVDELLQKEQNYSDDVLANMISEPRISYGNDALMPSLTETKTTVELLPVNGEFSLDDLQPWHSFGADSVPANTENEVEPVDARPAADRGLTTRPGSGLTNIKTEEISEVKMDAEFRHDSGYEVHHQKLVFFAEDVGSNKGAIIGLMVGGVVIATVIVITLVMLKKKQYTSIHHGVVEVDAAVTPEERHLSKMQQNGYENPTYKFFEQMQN

[5] = species: Homo sapiens; assay: Selectivity ratio of Ki for sigma1 receptor (unknown origin) to Ki for sigma2 receptor (unknown origin)
[6] = biological target: T1, Amyloid-beta precursor protein; assay: Inhibition of self-induced amyloid beta (1 to 42) (unknown origin) aggregation at 25 uM incubated for 24 hrs by Thioflavin T-based fluorometric assay relative to control
[7] = biological target: Cholinesterase (Equus caballus, UniProt P81908); assay: Inhibition of equine serum BChE incubated for 15 mins by Ellman's method; format: cell-free
Cholinesterase, sequence (P81908 whole entry): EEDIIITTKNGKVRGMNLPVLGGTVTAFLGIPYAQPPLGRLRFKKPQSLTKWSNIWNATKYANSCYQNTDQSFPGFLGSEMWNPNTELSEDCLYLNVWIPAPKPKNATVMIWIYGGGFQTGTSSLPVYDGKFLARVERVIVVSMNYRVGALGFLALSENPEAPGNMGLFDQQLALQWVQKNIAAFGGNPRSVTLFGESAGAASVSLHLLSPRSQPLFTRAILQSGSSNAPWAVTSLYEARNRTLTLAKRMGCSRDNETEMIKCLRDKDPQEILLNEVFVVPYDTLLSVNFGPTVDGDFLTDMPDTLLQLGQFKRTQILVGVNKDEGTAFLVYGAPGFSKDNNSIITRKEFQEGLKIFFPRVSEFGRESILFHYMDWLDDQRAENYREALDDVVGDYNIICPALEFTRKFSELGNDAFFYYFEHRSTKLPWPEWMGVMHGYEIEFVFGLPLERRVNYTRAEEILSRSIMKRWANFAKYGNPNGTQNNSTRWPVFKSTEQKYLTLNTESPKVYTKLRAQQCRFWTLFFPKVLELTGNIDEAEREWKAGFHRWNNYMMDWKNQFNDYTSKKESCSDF

[8] = biological target: T1, Amyloid-beta precursor protein; assay: Disaggregation of self-induced amyloid beta (1 to 42) (unknown origin) aggregation at 25 uM incubated for 24 hrs by Thioflavin T-based fluorometric assay relative to control
[9] = system: HEK293; assay: Induction of Nrf2/ARE transcriptional activation in human HEK293 cells measured after 24 hrs by Bright-Glo luciferase assay; format: cell-based; details: filed as activator

concentration at 5 min [1]: 14.3 ng/mL
concentration at 5 min [2]: 5.91 ng/mL
Structure (SMILES): CN(C)c1ccc(O)c(CNc2cccc3ccc(CO)nc23)c1

concentration at 0.5 h [3]: 620 nM
Structure (SMILES): NC1=NC(c2ccc(F)cc2)NC(=O)N1 (centres undefined)

More lines, now with the values behind:

Structure (SMILES): CCN(CCCCCCNC1=CC(=O)C(NCCCCCCN(CC)Cc2ccccc2OC)=CC1=O)Cc1ccccc1OC [MEMOQUIN]
IC50 [4]: 28.3 µM

Structure (SMILES): O=c1ccoc2ccc(OCCCN3CCCCCC3)cc12
Ratio Ki [5]: 28

Structure (SMILES): CCN(CCCCOc1ccc(/C=C/C(=O)N2CCc3ccccc3C2)cc1OC)Cc1ccccc1
inhibition [6]: 53.9%
IC50 [7]: 0.0089 µM
Activity [8]: 43.8%

Structure (SMILES): CCCOc1ccc2[nH]cc(CCNC(=O)CN(CCc3c[nH]c4ccc(OCc5ccccc5)cc34)C(=O)CCCC[C@@H]3CCSS3)c2c1
CD [9]: 28.1 µM

Source: ChEMBL document CHEMBL5107969, “Alzheimer's disease: Updated multi-targets therapeutics are in clinical and in progress” (Eur J Med Chem, 2022)
